We go through six compounds from publication PMC12136037, “Type II kinase inhibitors that target Parkinson’s disease–associated LRRK2” (Science Advances, 2025).

Common to all, as to assay: DSF 100 kinase selectivity screen;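 also: compound tested at 20 µM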
What all share (assay type): binding

The target of assay [1] is T1, ~100 representative kinases (Homo sapiens, UniProt Q8TD08).
T1 construct: Recombinant protein kinase domains with a concentration of 2 μM
T1 sequence (Q8TD08 1-544): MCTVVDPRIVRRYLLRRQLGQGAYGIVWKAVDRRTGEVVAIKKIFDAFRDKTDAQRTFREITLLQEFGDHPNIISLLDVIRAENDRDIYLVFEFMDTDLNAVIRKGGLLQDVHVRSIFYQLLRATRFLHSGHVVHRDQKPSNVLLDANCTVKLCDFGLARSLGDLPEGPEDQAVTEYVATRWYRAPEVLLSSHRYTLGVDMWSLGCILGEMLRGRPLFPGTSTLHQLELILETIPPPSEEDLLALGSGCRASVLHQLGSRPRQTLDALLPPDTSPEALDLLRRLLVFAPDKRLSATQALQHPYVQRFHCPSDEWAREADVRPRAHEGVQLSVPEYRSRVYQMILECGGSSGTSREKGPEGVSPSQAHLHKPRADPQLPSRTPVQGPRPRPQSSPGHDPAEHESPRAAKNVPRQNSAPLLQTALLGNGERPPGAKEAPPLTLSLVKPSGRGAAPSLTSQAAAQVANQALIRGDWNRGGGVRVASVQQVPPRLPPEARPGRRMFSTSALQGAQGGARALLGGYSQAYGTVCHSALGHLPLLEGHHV
The settings on record: protein MAPK15; average of three replicates. In outline:
(§1)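 Each kinase domain, at 2 μM, is mixed with 20 μM test compound and SYPRO Orange in Hepes (20 mM, pH 7.5) with 500 mM NaCl. Temperature is then raised at 3°C/min and fluorescence-monitored unfolding yields the melting temperature change, ΔTm in degrees Celsius.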

Assay [2] addresses T2, ~100 representative kinases (Homo sapiens, UniProt P16083).
T2 construct: Recombinant protein kinase domains with a concentration of 2 μM
T2 sequence (P16083 1-231): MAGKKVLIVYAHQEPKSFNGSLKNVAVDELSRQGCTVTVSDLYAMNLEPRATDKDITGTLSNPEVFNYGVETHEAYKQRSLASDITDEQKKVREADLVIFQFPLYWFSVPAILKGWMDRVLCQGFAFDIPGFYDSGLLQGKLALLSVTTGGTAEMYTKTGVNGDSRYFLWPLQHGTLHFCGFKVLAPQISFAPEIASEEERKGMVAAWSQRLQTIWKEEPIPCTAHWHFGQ
The following applies: protein NQO2; average of three replicates. In outline:
as §1

Assay [3] deals with T3, ~100 representative kinases (Homo sapiens, UniProt P17948).
T3 construct: Recombinant protein kinase domains with a concentration of 2 μM
T3 sequence (P17948 27-1338): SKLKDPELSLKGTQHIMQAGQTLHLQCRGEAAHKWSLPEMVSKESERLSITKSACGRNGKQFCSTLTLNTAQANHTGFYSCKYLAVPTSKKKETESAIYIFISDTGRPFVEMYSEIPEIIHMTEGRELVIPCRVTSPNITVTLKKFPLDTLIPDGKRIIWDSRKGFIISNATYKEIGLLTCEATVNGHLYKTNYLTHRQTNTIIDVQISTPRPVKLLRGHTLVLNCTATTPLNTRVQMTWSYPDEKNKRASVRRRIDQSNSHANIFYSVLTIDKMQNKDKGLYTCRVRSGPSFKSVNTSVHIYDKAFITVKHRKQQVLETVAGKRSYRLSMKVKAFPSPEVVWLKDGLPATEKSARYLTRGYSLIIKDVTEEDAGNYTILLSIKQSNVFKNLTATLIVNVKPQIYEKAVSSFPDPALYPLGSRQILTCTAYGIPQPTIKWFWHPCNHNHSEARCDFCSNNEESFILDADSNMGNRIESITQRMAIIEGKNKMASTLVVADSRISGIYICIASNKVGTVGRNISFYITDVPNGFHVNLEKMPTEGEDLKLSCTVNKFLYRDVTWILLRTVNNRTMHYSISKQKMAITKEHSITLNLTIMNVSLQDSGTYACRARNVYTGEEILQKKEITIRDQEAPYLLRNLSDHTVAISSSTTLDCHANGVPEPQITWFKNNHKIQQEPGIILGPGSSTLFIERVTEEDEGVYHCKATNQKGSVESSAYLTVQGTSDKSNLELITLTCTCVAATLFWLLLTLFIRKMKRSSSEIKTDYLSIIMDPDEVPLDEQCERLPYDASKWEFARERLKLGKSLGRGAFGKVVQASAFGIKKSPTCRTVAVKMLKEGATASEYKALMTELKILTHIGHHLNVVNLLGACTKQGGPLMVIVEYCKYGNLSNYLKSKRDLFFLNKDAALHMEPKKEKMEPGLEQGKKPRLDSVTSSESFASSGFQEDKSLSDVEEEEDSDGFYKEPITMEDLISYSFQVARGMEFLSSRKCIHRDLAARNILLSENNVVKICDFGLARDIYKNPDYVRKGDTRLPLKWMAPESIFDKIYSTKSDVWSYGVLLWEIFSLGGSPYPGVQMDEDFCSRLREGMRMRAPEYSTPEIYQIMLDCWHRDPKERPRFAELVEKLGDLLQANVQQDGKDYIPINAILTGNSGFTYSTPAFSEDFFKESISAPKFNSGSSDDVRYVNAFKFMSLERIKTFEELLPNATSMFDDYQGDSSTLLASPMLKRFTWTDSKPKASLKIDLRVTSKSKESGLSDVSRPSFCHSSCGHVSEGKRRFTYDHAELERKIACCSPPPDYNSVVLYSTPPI
The settings on record: protein FLT1; average of three replicates. In outline:
as §1

In assay [4] the target is T4, ~100 representative kinases (Homo sapiens, UniProt Q9NSY1).
T4 construct: Recombinant protein kinase domains with a concentration of 2 μM
T4 sequence (Q9NSY1 whole entry, the tested form may be a part): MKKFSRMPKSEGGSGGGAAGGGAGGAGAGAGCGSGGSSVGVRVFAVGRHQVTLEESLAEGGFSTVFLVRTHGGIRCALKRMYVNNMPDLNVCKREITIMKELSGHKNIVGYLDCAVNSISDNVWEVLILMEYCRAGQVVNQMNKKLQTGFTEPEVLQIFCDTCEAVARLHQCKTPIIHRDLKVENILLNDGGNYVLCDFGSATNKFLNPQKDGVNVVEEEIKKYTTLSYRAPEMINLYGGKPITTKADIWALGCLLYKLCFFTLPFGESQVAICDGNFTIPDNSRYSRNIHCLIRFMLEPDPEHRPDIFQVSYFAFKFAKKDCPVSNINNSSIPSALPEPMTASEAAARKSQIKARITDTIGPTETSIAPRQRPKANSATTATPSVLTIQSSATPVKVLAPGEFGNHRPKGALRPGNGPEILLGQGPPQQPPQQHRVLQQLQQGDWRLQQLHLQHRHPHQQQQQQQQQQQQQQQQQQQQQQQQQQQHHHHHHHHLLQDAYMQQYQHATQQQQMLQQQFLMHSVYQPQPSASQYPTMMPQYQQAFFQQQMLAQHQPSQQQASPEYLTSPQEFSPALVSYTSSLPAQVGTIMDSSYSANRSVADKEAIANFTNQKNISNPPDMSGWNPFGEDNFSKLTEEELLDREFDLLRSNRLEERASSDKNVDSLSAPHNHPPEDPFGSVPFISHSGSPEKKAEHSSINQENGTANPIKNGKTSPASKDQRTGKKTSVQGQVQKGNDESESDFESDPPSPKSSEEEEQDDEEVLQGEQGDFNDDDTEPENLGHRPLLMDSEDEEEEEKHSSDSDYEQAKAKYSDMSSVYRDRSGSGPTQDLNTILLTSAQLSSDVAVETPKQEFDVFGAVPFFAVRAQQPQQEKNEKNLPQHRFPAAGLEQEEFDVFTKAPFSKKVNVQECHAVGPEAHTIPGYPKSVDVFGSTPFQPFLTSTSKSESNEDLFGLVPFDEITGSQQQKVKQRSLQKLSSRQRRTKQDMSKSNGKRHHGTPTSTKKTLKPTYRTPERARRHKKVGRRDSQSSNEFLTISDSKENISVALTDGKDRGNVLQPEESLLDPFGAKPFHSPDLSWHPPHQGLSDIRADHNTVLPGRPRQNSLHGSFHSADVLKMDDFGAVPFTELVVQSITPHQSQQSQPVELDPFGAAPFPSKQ
The following applies: Protein BMP2K; average of three replicates. The gist of the method: as §1

Assay [5] has as its target T5, ~100 representative kinases (Homo sapiens, UniProt Q96RR4).
T5 construct: Recombinant protein kinase domains with a concentration of 2 μM
The settings on record: Protein CAMKK2; average of three replicates. In outline: as §1

Assay [6] addresses T6, ~100 representative kinases (Homo sapiens, UniProt P24941).
T6 construct: Recombinant protein kinase domains with a concentration of 2 μM
The settings on record: Protein CDK2; average of three replicates. In outline: as §1

In assay [7] the target is T7, ~100 representative kinases (Homo sapiens, UniProt O14976).
T7 construct: Recombinant protein kinase domains with a concentration of 2 μM
T7 sequence (O14976 1-1311): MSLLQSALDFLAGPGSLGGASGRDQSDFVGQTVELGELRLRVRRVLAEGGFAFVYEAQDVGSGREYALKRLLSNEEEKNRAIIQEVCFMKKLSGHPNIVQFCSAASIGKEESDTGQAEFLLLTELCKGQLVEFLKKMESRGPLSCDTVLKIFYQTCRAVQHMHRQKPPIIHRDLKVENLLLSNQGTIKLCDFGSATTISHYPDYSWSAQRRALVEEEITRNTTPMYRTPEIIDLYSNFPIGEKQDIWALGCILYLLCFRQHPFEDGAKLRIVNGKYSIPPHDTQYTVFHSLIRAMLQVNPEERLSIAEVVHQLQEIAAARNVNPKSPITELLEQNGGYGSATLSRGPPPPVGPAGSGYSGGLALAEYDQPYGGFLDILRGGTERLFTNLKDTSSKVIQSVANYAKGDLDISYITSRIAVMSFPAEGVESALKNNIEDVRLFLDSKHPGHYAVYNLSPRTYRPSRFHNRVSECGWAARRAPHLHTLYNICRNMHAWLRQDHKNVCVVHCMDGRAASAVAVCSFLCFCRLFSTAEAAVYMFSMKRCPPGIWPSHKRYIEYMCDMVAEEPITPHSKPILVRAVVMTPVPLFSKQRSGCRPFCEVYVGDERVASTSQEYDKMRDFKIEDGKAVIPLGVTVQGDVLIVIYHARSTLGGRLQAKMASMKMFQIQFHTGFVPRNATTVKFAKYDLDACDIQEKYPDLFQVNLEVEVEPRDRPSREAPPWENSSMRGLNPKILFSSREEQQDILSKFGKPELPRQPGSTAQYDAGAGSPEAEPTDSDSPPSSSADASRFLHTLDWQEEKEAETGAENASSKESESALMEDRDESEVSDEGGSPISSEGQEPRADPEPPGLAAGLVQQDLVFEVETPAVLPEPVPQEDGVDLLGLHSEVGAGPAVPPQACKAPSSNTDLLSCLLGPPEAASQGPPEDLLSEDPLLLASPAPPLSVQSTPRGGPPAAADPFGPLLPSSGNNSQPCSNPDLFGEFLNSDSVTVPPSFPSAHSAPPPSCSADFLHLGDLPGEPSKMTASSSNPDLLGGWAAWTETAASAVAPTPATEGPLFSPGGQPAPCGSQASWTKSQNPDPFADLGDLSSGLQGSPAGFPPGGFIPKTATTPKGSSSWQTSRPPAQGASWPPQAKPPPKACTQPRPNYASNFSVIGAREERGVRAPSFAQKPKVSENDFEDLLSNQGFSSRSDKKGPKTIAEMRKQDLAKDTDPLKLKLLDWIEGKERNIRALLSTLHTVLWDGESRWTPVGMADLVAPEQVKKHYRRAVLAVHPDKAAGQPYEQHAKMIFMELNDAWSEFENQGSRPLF
The following applies: protein GAK; average of three replicates. The gist of the method: as §1

T5 sequence (Q96RR4 whole entry, the tested form may be a part): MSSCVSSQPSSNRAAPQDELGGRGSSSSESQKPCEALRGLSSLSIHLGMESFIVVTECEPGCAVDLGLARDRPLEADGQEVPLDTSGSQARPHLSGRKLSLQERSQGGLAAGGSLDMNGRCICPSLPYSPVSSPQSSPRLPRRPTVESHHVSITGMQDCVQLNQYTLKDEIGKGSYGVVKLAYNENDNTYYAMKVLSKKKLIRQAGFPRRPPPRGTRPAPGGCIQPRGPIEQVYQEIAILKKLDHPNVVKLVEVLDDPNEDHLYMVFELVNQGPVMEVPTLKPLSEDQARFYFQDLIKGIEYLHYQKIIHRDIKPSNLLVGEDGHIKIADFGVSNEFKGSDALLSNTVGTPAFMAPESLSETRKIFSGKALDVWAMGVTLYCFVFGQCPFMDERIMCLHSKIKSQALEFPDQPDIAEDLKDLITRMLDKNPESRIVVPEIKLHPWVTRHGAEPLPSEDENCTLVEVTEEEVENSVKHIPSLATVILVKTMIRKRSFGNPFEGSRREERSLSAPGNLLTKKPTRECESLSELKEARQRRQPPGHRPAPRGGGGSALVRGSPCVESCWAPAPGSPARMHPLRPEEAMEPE

As to `Cc1cc(F)ccc1NC(=O)C1(C(=O)Nc2cccc(-c3c[nH]c4ncnc(N5CCOCC5)c34)c2)CC1` [Compound 24], the dTm is on record as 4.07 K in assay [1]; -2.19 K in assay [2]; 4.10 K in assay [3]; 6.47 K in assay [4]; 6.43 K in assay [5]; 3.87 K in assay [6]. In assay [7], the dTm came to 0.84 K.
For the compound `O=C(Nc1cccc(-c2c[nH]c3ncnc(N4CCOCC4)c23)c1)C1(C(=O)Nc2cc(Br)c(F)cc2F)CC1` [Compound 25], the dTm in assay [1] is 3.06 K; in assay [2], -1.75 K; in assay [3] it was 1.86 K; in assay [4], 6.63 K; in assay [5], 6.31 K; in assay [6], 3.68 K. In addition, in assay [7], the dTm is 0.71 K.
Turning to `O=C(Nc1cccc(-c2c[nH]c3ncnc(N4CCOCC4)c23)c1)C1(C(=O)Nc2ccc(F)c(Br)c2F)CC1` [Compound 26], the dTm in assay [1] is on record as 5.05 K; in assay [2], -2.66 K; in assay [3] it was 2.22 K; in assay [4], 9.57 K; in assay [5], 5.53 K; in assay [6], 3.97 K. This compound registered a dTm in assay [7] of 0.91 K.
`O=C(Nc1cc(F)cc(Br)c1)C1(C(=O)Nc2cccc(-c3c[nH]c4ncnc(N5CCOCC5)c34)c2)CC1` [Compound 27]: the dTm is 4.52 K in assay [1]; -1.53 K in assay [2]; 1.63 K in assay [3]; 5.45 K in assay [4]; 3.64 K in assay [5]; 4.12 K in assay [6]. In assay [7], the dTm is on record as -0.90 K.
As for `CC(C)(C)c1cc(NC(=O)Nc2cccc(-c3c[nH]c4ncnc(N5CCOCC5)c34)c2)n(-c2ccc3ncccc3c2)n1` [Compound 28], the dTm came out at 14.38 K in assay [1]; 0.00214 K in assay [2]; 12.33 K in assay [3]; 6.24 K in assay [4]; 12.27 K in assay [5]; 14.76 K in assay [6]. In assay [7], this compound had a dTm of 7.34 K.
For `CCSc1nc(NC)c2c(-c3cccc(NC(=O)Nc4cc(C(C)(C)C)nn4-c4ccc(C)cc4)c3)c[nH]c2n1` [Compound 32], the dTm in assay [1] is 3.18 K; in assay [2] it was -0.0148 K; in assay [3], 1.15 K; in assay [4], 0.75 K; in assay [5] it was 2.43 K; in assay [6], 0.83 K. The compound also came in with a dTm in assay [7] of -1.07 K.
